{"source": "paper PMC12138978", "about": "“Mu Opioid Receptor Positive Allosteric Modulator BMS-986122 Confers Agonist-Dependent G Protein Subtype Signaling Bias” (Biochemistry, 2025)", "key": {"[1]": {"molecular_target": "T1, human MOR signaling through Gαz with RGS20 (Homo sapiens, UniProt P35372)", "T1 construct": "host or cells: HEK 293T, transient", "T1 sequence (P35372 whole entry)": "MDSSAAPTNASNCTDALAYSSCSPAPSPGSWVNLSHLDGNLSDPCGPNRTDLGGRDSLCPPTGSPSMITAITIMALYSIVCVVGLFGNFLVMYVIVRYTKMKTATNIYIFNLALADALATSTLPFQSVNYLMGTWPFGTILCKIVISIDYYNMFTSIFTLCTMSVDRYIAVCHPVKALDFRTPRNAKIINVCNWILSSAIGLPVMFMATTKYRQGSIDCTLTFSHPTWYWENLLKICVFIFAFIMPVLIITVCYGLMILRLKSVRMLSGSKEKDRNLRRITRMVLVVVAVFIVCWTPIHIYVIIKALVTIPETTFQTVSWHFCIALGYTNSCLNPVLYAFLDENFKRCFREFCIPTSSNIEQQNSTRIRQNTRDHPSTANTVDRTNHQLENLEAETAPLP", "T1 sequence (P19086 2-355 partner limits assumed)": "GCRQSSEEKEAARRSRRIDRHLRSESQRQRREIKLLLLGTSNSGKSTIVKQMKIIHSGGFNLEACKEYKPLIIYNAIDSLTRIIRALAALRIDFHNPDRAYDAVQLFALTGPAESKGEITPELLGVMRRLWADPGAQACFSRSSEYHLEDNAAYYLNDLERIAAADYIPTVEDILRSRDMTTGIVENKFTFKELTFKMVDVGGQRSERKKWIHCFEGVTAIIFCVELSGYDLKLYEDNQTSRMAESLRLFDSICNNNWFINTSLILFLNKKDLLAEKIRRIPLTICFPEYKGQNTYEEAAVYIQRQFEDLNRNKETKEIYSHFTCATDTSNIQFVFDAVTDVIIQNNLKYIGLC", "assay": "nanoBRET assay, MOR signaling through Gαz with RGS20 (RGSz1) coexpression", "assay_type": "cell-based", "conditions": "RGS20 (RGSz1) co-expressed"}, "[2]": {"molecular_target": "T2, human MOR signaling through Gαi2 (Homo sapiens, UniProt P35372)", "T2 construct": "host or cells: HEK 293T, transient", "T2 sequence (P35372 whole entry)": "as the sequence (P35372 whole entry) above", "T2 sequence (P04899 2-355 partner limits assumed)": "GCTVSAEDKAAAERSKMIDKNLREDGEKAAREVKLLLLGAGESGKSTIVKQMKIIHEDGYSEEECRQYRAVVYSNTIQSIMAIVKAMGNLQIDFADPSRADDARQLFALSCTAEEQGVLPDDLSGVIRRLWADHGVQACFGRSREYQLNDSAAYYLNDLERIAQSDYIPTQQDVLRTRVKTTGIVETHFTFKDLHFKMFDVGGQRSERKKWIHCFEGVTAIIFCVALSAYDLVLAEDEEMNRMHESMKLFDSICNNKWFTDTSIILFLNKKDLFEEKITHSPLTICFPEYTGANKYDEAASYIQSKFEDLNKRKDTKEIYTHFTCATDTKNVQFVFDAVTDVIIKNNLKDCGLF", "assay_type": "cell-based", "conditions": "for Kb: read-out: KB (affinity of BMS-986122)"}, "[3]": {"system": "MOR", "parameters": "method as in Burford et al.", "conditions": "endomorphin-1 as orthosteric agonist, allosteric ternary complex model; ref Burford et al.; cited from earlier work"}, "[4]": {"molecular_target": "T3, human MOR signaling through Gαi1 (Homo sapiens, UniProt P35372)", "T3 construct": "host or cells: HEK 293T, transient", "T3 sequence (P35372 whole entry)": "as the sequence (P35372 whole entry) above", "T3 sequence (P63096 2-354 partner limits assumed)": "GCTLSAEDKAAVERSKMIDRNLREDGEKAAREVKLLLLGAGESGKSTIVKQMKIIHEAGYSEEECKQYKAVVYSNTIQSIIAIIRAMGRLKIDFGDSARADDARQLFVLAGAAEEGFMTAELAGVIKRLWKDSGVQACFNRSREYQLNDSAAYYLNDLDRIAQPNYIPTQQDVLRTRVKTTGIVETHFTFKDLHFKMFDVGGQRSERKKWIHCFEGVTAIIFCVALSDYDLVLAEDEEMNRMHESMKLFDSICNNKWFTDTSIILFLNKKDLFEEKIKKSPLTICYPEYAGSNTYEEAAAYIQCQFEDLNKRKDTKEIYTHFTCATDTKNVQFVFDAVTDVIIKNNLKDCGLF", "assay_type": "cell-based"}, "[5]": {"molecular_target": "T4, human MOR signaling through GαoB (Homo sapiens, UniProt P35372)", "T4 construct": "host or cells: HEK 293T, transient", "T4 sequence (P35372 whole entry)": "as the sequence (P35372 whole entry) above", "T4 sequence (P09471 2-354 isoform P09471-2 partner limits assumed)": "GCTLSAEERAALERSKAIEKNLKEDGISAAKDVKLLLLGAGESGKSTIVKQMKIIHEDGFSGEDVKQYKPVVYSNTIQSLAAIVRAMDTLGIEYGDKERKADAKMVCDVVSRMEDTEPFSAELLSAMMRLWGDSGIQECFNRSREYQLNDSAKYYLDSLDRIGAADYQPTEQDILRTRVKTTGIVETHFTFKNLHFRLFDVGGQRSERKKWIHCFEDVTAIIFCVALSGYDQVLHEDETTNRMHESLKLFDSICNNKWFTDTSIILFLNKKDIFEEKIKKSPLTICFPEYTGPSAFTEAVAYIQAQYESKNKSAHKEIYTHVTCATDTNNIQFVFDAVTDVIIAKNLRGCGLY", "assay_type": "cell-based", "conditions": "for Kb: read-out: KB (affinity of BMS-986122)"}, "[6]": {"molecular_target": "T5, human MOR signaling through Gαi3-oBct (Homo sapiens, UniProt P35372)", "T5 construct": "host or cells: HEK 293T, transient", "T5 sequence (P35372 whole entry)": "as the sequence (P35372 whole entry) above", "T5 sequence (P08754 with tags, fused parts or gaps K345A/N346K/K349R/E350G partner limits assumed)": "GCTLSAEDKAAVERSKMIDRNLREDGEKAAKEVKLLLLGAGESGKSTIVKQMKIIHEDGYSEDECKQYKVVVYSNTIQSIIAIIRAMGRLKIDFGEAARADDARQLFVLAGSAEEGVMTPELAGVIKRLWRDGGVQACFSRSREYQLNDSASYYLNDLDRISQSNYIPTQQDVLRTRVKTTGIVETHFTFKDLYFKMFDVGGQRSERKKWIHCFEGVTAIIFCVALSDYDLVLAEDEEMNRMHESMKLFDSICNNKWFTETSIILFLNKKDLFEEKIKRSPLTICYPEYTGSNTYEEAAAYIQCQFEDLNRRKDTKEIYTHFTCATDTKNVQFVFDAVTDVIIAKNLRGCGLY", "assay": "nanoBRET assay, MOR signaling through Gαi3-oBct chimera (C-terminus of GαoB)", "assay_type": "cell-based", "conditions": "orthosteric agonist 7-hydroxymitragynine, read-out: KB (affinity of BMS-986122)", "experimental": "(§1) Human embryonic kidney (HEK) 293T cells (ATCC, Manassas, VA) maintained and transfected as described in previous work, with some modifications. Cells were cultured on 0.01% poly-L-lysine (Millipore Sigma, Darmstadt, Germany)-coated 10 cm dishes in Dulbecco’s modified Eagle medium (GIBCO, Grand Island, NY) supplemented with 5% fetal bovine serum, 1% nonessential amino acids, 1 mM sodium pyruvate, and 100 U/mL penicillin/streptomycin, maintained in an incubator at 37 °C in a 5% CO2 atmosphere. Prior to transfection, 3.0 × 10^6 cells were reseeded onto Matrigel-coated (Corning, Inc., Corning NY) 6 cm dishes and incubated for 4 h at 37 °C and 5% CO2. […]\n(§2) BRET measurements between mVenus-Gβ1γ2 and masGRK3ct-nLuc for nanoBRET, and Gγ-GFP2 and Gα-rLuc8 for TruPATH, were performed to determine agonist-dependent activation of each Gα protein of interest in the presence and absence of BMS-986122, in live HEK 293T cells. […] For TruPATH, cells were incubated for 30 min at 25 °C prior to luminescence emissions being read at 515 and 410 nm. […]\n(§3) This form of the operational model was selected because all parameters are constrained by default to be equal for each data set except for τ, which had no constraints. […] Statistical significance between Δlog(τ) values for each Gα subunit were calculated via one-way ANOVA with Tukey’s posthoc analysis. […]"}, "[7]": {"molecular_target": "T6, human MOR signaling through Gαz (Homo sapiens, UniProt P35372)", "T6 construct": "host or cells: HEK 293T, transient", "T6 sequence (P35372 whole entry)": "as the sequence (P35372 whole entry) above", "T6 sequence (P19086 2-355 partner limits assumed)": "as the sequence (P19086 2-355 partner limits assumed) above", "assay_type": "cell-based", "conditions": "Gαz, up to 10 μM, absence of any orthosteric agonist, no RGS20"}, "[8]": {"system": "human MOR signaling through different Gα subunits", "assay": "nanoBRET assay, comparison or average across Gα subunits", "assay_type": "cell-based", "conditions": "7-hydroxymitragnine as agonist, 10 μM PAM, relative transduction coefficients compared between Gαi3 and GαoB"}, "[9]": {"molecular_target": "T7, human MOR signaling through GαoA (Homo sapiens, UniProt P35372)", "T7 construct": "host or cells: HEK 293T, transient", "T7 sequence (P35372 whole entry)": "as the sequence (P35372 whole entry) above", "T7 sequence (P09471 2-354 partner limits assumed)": "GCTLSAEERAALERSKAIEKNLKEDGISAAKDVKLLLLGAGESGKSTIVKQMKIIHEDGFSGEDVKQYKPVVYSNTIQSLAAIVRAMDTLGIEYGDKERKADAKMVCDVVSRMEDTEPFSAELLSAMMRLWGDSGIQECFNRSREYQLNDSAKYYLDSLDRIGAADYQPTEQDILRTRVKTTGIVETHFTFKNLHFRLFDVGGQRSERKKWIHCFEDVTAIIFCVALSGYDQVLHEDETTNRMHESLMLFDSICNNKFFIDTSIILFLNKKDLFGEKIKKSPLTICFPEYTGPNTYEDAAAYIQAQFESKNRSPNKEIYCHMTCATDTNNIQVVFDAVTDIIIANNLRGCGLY", "assay_type": "cell-based"}, "[10]": {"molecular_target": "T8, human MOR signaling through Gαi2^N346 K mutant (Homo sapiens, UniProt P35372)", "T8 construct": "host or cells: HEK 293T, transient", "T8 sequence (P35372 whole entry, stated change not applied)": "as the sequence (P35372 whole entry) above", "T8 sequence (P04899 with tags, fused parts or gaps N347K partner)": "as the sequence (P04899 2-355 partner limits assumed) above, with N346K counted along it", "assay": "nanoBRET assay, MOR signaling through mutant Gαi2 N346K", "assay_type": "cell-based", "conditions": "orthosteric agonist 7-hydroxymitragynine, read-out: KB (affinity of BMS-986122)", "experimental": "as §1, §2, §3"}, "[11]": {"molecular_target": "T9, human MOR signaling through Gαi3 (Homo sapiens, UniProt P35372)", "T9 construct": "host or cells: HEK 293T, transient", "T9 sequence (P35372 whole entry)": "as the sequence (P35372 whole entry) above", "T9 sequence (P08754 2-354 partner limits assumed)": "as the sequence (P08754 with tags, fused parts or gaps K345A/N346K/K349R/E350G partner limits assumed) above, with A344K, K345N, R348K, G349E counted along it", "assay_type": "cell-based"}, "[12]": {"molecular_target": "T10, human MOR signaling through Gαi3^K349R, E350G mutant (Homo sapiens, UniProt P35372)", "T10 construct": "host or cells: HEK 293T, transient", "T10 sequence (P35372 whole entry, stated change not applied)": "as the sequence (P35372 whole entry) above", "T10 sequence (P08754 with tags, fused parts or gaps K349R/E350G partner)": "as the sequence (P08754 with tags, fused parts or gaps K345A/N346K/K349R/E350G partner limits assumed) above, with A344K, K345N counted along it", "assay": "nanoBRET assay, MOR signaling through mutant Gαi3 K349R, E350G", "assay_type": "cell-based", "conditions": "orthosteric agonist 7-hydroxymitragynine, read-out: KB (affinity of BMS-986122)", "experimental": "as §1, §2, §3"}}, "note": "Values joined by “and” are separate entries in the source; they are usually repeats but may differ in a detail not shown here. Equal entries are not always repeated. Where two headings read alike, the source gives them in different places.", "data": [{"compound": "COc1ccc(C2SCCN2S(=O)(=O)c2ccc(Cl)cc2)cc1Br", "note": "(stereo not drawn) [BMS-986122]", "values": [{"measurement": "Allosteric agonism of PAM alone with RGS20 co-expression", "setting": "[1]", "value": "effectively eliminate the allosteric agonism"}, {"measurement": "α (affinity cooperativity factor of BMS-986122)", "setting": "[2]", "value": "5.9 ± 0.6 and 3.2 ± 0.3"}, {"measurement": "β (efficacy cooperativity factor of BMS-986122)", "setting": "[2]", "value": "3.3 ± 0.3"}, {"measurement": "Kb", "setting": "[2]; Gαi2 (WT), orthosteric agonist 7-Hydroxymitragynine", "value": "3.1 ± 0.7", "unit": "µM"}, {"measurement": "β (efficacy cooperativity factor of BMS-986122)", "setting": "[2]; Gαi2, orthosteric agonist 7-Hydroxymitragynine, functional allosteric model", "value": "10 ± 2.8"}, {"measurement": "Response of PAM alone (allosteric agonism)", "setting": "[2]; Gαi2, up to 10 μM, absence of any orthosteric agonist", "value": "no response"}, {"measurement": "Kb", "setting": "[2]", "value": "2.4 µM and 1.5 µM and 1.9 µM"}, {"measurement": "Affinity cooperativity factor α", "setting": "[3]", "value": 7.0}, {"measurement": "Kb", "setting": "[3]", "value": 5, "unit": "µM"}, {"measurement": "α (affinity cooperativity factor of BMS-986122)", "setting": "[4]", "value": "5.0 ± 0.2 and 6.9 ± 0.9"}, {"measurement": "β (efficacy cooperativity factor of BMS-986122)", "setting": "[4]", "value": "10 ± 0.8"}, {"measurement": "Response of PAM alone (allosteric agonism)", "setting": "[4]; Gαi1, up to 10 μM, absence of any orthosteric agonist", "value": "no response"}, {"measurement": "Kb", "setting": "[4]; read-out: KB (affinity of BMS-986122)", "value": "2.5 µM and 3.4 µM"}, {"measurement": "β (efficacy cooperativity factor of BMS-986122)", "setting": "[5]", "value": "4.2 ± 0.8"}, {"measurement": "Kb", "setting": "[5]; GαoB (WT), orthosteric agonist 7-Hydroxymitragynine", "value": "0.54 ± 0.1", "unit": "µM"}, {"measurement": "Hill coefficient of R50 curve", "setting": "[5]; GαoB, BMS-986122 titrated in presence of 10 μM 7-hydroxymitragynine", "value": 3.0}, {"measurement": "EC50", "setting": "[5]; GαoB, BMS-986122 titrated in presence of constant 10 μM 7-hydroxymitragynine, read-out: R50 (concentration of PAM which gives a half-maximal response)", "value": "0.67 ± 0.11", "unit": "µM"}, {"measurement": "β (efficacy cooperativity factor of BMS-986122)", "setting": "[5]; GαoB, orthosteric agonist 7-Hydroxymitragynine, functional allosteric model", "value": "15 ± 4.2"}, {"measurement": "Response of PAM alone (allosteric agonism)", "setting": "[5]; GαoB, up to 10 μM, absence of any orthosteric agonist", "value": "no response"}, {"measurement": "Kb", "setting": "[5]", "value": "0.62 ± 0.18", "unit": "µM"}, {"measurement": "Kb", "setting": "[6]", "value": "0.7 ± 0.06", "unit": "µM"}, {"measurement": "Emax of PAM alone (allosteric agonism)", "setting": "[7]", "value": "21 ± 2", "unit": "%"}, {"measurement": "ΔΔlog(τ)oB-i3", "setting": "[8]", "value": 0.708}, {"measurement": "α (affinity cooperativity factor of BMS-986122)", "setting": "[9]", "value": "7.1 ± 1.0 and 4.3 ± 0.7"}, {"measurement": "β (efficacy cooperativity factor of BMS-986122)", "setting": "[9]", "value": "4.2 ± 0.3"}, {"measurement": "β (efficacy cooperativity factor of BMS-986122)", "setting": "[9]; GαoA, orthosteric agonist 7-Hydroxymitragynine, functional allosteric model", "value": "12 ± 1.8"}, {"measurement": "Kb", "setting": "[9]; GαoA, orthosteric agonist 7-Hydroxymitragynine, read-out: KB (affinity of BMS-986122)", "value": "8 ± 0.2", "unit": "µM"}, {"measurement": "Response of PAM alone (allosteric agonism)", "setting": "[9]; GαoA, up to 10 μM, absence of any orthosteric agonist", "value": "no response"}, {"measurement": "Kb", "setting": "[10]", "value": "0.69 ± 0.06", "unit": "µM"}, {"measurement": "Kb", "setting": "[11]; Gαi3 (WT), orthosteric agonist 7-Hydroxymitragynine, read-out: KB (affinity of BMS-986122)", "value": "2.3 ± 0.8", "unit": "µM"}, {"measurement": "β (efficacy cooperativity factor of BMS-986122)", "setting": "[11]; Gαi3, orthosteric agonist 7-Hydroxymitragynine, functional allosteric model", "value": "5.9 ± 1.1"}, {"measurement": "Response of PAM alone (allosteric agonism)", "setting": "[11]; Gαi3, up to 10 μM, absence of any orthosteric agonist", "value": "no response"}, {"measurement": "Kb", "setting": "[12]", "value": "2.8 ± 0.4", "unit": "µM"}]}]}
